According to US11420935B2, “Bicyclic compounds” (Vivace Therapeutics, Inc., priority 2019, dated 2022):

system: 8×TBD luciferase reporter (YAP) in HEK293T cells; assay: YAP Reporter Assay (8×TBD firefly luciferase reporter); format: cell-based; details: Homo sapiens, HEK-293T, 24 h, read-out: Firefly Luciferase IC50 (μM)
Summary of the method: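 Stably transfected HEK293T cells (8×TBD firefly luciferase plus TK-renilla) were dosed with 10-point 1:3 dilutions from 3 μM final, quadruplicates, for 24 h at 37 °C. Dual-Glo read firefly and renilla luminescence; IC50 and maximal inhibition reported separately for each.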

First: COc1cc(Oc2ccc(C(F)(F)F)cc2)c2ncc(C(=O)NC(C)C)cc2c1 [Compound 113, N-Isopropyl-6-methoxy-8-(4-(trifluoromethyl)phenoxy)quinoline-3-carboxamide]
Second: C[C@H](NC(=O)c1ccc2c(Oc3ccc(C(F)(F)F)cc3)cccc2c1)C1CN(CCO)C1 [Compound 128, (S)—N-(1-(1-(2-hydroxyethyl)azetidin-3-yl)ethyl)-5-(4-(trifluoromethyl)phenoxy)-2-naphthamide]
The IC50 of the first is lower: under 0.1 µM for the first, 0.1 to 1 µM for the second.

For `C[C@@H](NC(=O)c1ccc2c(Oc3ccc(C(F)(F)F)cc3)cccc2c1)C1CN(CCO)C1` [Compound 135, (R)—N-(1-(1-(2-hydroxyethyl)azetidin-3-yl)ethyl)-5-(4-(trifluoromethyl)phenoxy)-2-naphthamide], the IC50 was 0.1 to 1 µM.

same assay, conditions: Homo sapiens, HEK-293T; HEK293T cells stably transfected with 8×TBD luciferase reporter and pRLTK; 24-hr incubation; firefly luciferase activity; read-out: Firefly Luciferase IC50

Compared with `C[C@@H](NC(=O)c1ccc2c(Oc3ccc(C(F)(F)F)cc3)cccc2c1)c1cccc2ccc(=O)[nH]c12` [Compound 98, N-[(1R)-1-(2-oxo-1H-quinolin-8-yl)ethyl]-5-[4-(trifluoromethyl)phenoxy]naphthalene-2-carboxamide], `C[C@@H](NC(=O)c1cnc2c(Oc3ccc(C(F)(F)F)cc3)cccc2c1)c1cccc2nc[nH]c12` [Compound 103, (R)—N-(1-(1H-benzo[d]imidazol-7-yl)ethyl)-8-(4-(trifluoromethyl)phenoxy)quinoline-3-carboxamide] is higher in IC50: under 0.1 µM for the first, 0.1 to 1 µM for the second.

`CC(=O)N1CC([C@H](C)NC(=O)c2ccc3c(Oc4ccc(C(F)(F)F)cc4)cccc3c2)C1` [Compound 100, (S)—N-(1-(1-acetylazetidin-3-yl)ethyl)-5-(4-(trifluoromethyl)phenoxy)-2-naphthamide] and `CC(=O)N1CC([C@@H](C)NC(=O)c2ccc3c(Oc4ccc(C(F)(F)F)cc4)cccc3c2)C1` [Compound 101, (R)—N-(1-(1-acetylazetidin-3-yl)ethyl)-5-(4-(trifluoromethyl)phenoxy)-2-naphthamide] fall in the same range of IC50: 0.1 to 1 µM for the first, 0.1 to 1 µM for the second.

`C[C@H](CO)NC(=O)c1cnc2c(Oc3ccc(C(F)(F)F)cc3)cc(F)c(F)c2c1` [Compound 102, (R)-5,6-difluoro-N-(1-hydroxypropan-2-yl)-8-(4-(trifluoromethyl)phenoxy)quinoline-3-carboxamide] and `COc1cc(Oc2ccc(C(F)(F)F)cc2)c2ncc(C(=O)N[C@H](C)CO)cc2c1` [Compound 116, (R)—N-(1-hydroxypropan-2-yl)-6-methoxy-8-(4-(trifluoromethyl)phenoxy)quinoline-3-carboxamide] cannot be ordered by IC50: under 0.1 µM for the first, under 0.1 µM for the second.

Compared with `C[C@H](NC(=O)c1cnc2c(Oc3ccc(C(F)(F)F)cc3)cccc2c1)c1cccc2nc[nH]c12` [Compound 104, (S)—N-(1-(1H-benzo[d]imidazol-7-yl)ethyl)-8-(4-(trifluoromethyl)phenoxy)quinoline-3-carboxamide], `C[C@@H](NC(=O)c1cnc2c(Oc3ccc(C(F)(F)F)cc3)cccc2c1)c1cccc2ccsc12` [Compound 105, (R)—N-(1-(benzo[b]thiophen-7-yl)ethyl)-8-(4-(trifluoromethyl)phenoxy)quinoline-3-carboxamide] is higher in IC50: under 0.1 µM for the first, 0.1 to 1 µM for the second. The first is the more potent here.

First: C[C@H](CN)NC(=O)c1ccc2c(Oc3ccc(C(F)(F)F)cc3)cccc2c1 [Compound 107, (R)—N-(1-aminopropan-2-yl)-5-(4-(trifluoromethyl)phenoxy)-2-naphthamide]
Second: C[C@@H](CN)NC(=O)c1ccc2c(Oc3ccc(C(F)(F)F)cc3)cccc2c1 [Compound 108, (S)—N-(1-aminopropan-2-yl)-5-(4-(trifluoromethyl)phenoxy)-2-naphthamide]
The IC50 of the first is higher: 0.1 to 1 µM for the first, under 0.1 µM for the second.

First: O=C(N[C@H](CCO)c1ccccn1)c1ccc2c(Oc3ccc(C(F)(F)F)cc3)cccc2c1 [Compound 109, (R)—N-(3-hydroxy-1-(pyridin-2-yl)propyl)-5-(4-(trifluoromethyl)phenoxy)-2-naphthamide]
Second: O=C(N[C@@H](CCO)c1ccccn1)c1ccc2c(Oc3ccc(C(F)(F)F)cc3)cccc2c1 [Compound 110, (S)—N-(3-hydroxy-1-(pyridin-2-yl)propyl)-5-(4-(trifluoromethyl)phenoxy)-2-naphthamide]
The IC50 of the first is higher: 0.1 to 1 µM for the first, under 0.1 µM for the second.

`C[C@@H](CCN)NC(=O)c1ccc2c(Oc3ccc(C(F)(F)F)cc3)cccc2c1` [Compound 111, (S)—N-(4-aminobutan-2-yl)-5-(4-(trifluoromethyl)phenoxy)-2-naphthamide] and `C[C@H](CCN)NC(=O)c1ccc2c(Oc3ccc(C(F)(F)F)cc3)cccc2c1` [Compound 112, (R)—N-(4-aminobutan-2-yl)-5-(4-(trifluoromethyl)phenoxy)-2-naphthamide] cannot be ordered by IC50: under 0.1 µM for the first, under 0.1 µM for the second.

`C[C@H](CCO)NC(=O)c1ccc2c(Oc3ccc(C(F)(F)F)cc3)cccc2c1` [Compound 114, (R)—N-(4-hydroxybutan-2-yl)-5-(4-(trifluoromethyl)phenoxy)-2-naphthamide] and `C[C@@H](CCO)NC(=O)c1ccc2c(Oc3ccc(C(F)(F)F)cc3)cccc2c1` [Compound 115, (S)—N-(4-hydroxybutan-2-yl)-5-(4-(trifluoromethyl)phenoxy)-2-naphthamide] cannot be ordered by IC50: under 0.1 µM for the first, under 0.1 µM for the second.

First: NS(=O)(=O)c1ccc2c(Oc3ccc(C(F)(F)F)cc3)cccc2c1 [Compound 117, 5-(4-(trifluoromethyl)phenoxy)naphthalene-2-sulfonamide]
Second: C[C@@H](NC(=O)c1ccc2c(Oc3ccc(C(F)(F)F)cc3)cccc2c1)C1CN(C)C1 [Compound 126, (R)—N-(1-(1-methylazetidin-3-yl)ethyl)-5-(4-(trifluoromethyl)phenoxy)-2-naphthamide]
The IC50 of the first is lower: under 0.1 µM for the first, 0.1 to 1 µM for the second. The first is the more potent here.

`COc1cc(Oc2ccc(C(F)(F)F)cc2)c2ncc(C(=O)NC(CO)c3ccccn3)cc2c1` (stereo not shown) [Compound 118, N-(2-Hydroxy-1-(pyridin-2-yl)ethyl)-6-methoxy-8-(4-(trifluoromethyl)phenoxy)quinoline-3-carboxamide] and `O=C(N[C@H](CO)c1ccccn1)c1ccc2c(Oc3ccc(C(F)(F)F)cc3)cccc2c1` [Compound 119, (S)—N-(2-hydroxy-1-(pyridin-2-yl)ethyl)-5-(4-(trifluoromethyl)phenoxy)-2-naphthamide] cannot be ordered by IC50: under 0.1 µM for the first, under 0.1 µM for the second.

First: O=C(N[C@@H](CO)c1ccccn1)c1ccc2c(Oc3ccc(C(F)(F)F)cc3)cccc2c1 [Compound 120, (R)—N-(2-hydroxy-1-(pyridin-2-yl)ethyl)-5-(4-(trifluoromethyl)phenoxy)-2-naphthamide]
Second: O=C(NC(CCO)CCO)c1ccc2c(Oc3ccc(C(F)(F)F)cc3)cccc2c1 [Compound 121, N-(1,5-dihydroxypentan-3-yl)-5-(4-(trifluoromethyl)phenoxy)-2-naphthamide]
The IC50 of the first is higher: 0.1 to 1 µM for the first, under 0.1 µM for the second.

First: C[C@@H](NC(=O)c1ccc2c(Oc3ccc(C(F)(F)F)cc3)cccc2c1)C1CN(CCCCO)C1 [Compound 123, (R)—N-(1-(1-(4-hydroxybutyl)azetidin-3-yl)ethyl)-5-(4-(trifluoromethyl)phenoxy)-2-naphthamide]
Second: C[C@@H](NC(=O)c1ccc2c(Oc3ccc(C(F)(F)F)cc3)cccc2c1)C1CN(CCF)C1 [Compound 124, (R)—N-(1-(1-(2-fluoroethyl)azetidin-3-yl)ethyl)-5-(4-(trifluoromethyl)phenoxy)-2-naphthamide]
The IC50 of the first is higher: 0.1 to 1 µM for the first, under 0.1 µM for the second.

First: C[C@@H](NC(=O)c1ccc2c(Oc3ccc(C(F)(F)F)cc3)cccc2c1)C1CN(CC(F)F)C1 [Compound 125, (R)—N-(1-(1-(2,2-difluoroethyl)azetidin-3-yl)ethyl)-5-(4-(trifluoromethyl)phenoxy)-2-naphthamide]
Second: C[C@H](NC(=O)c1ccc2c(Oc3ccc(C(F)(F)F)cc3)cccc2c1)C1CN(CC(F)F)C1 [Compound 134, (S)—N-(1-(1-(2,2-difluoroethyl)azetidin-3-yl)ethyl)-5-(4-(trifluoromethyl)phenoxy)-2-naphthamide]
The IC50 of the first is lower: under 0.1 µM for the first, 1 to 3 µM for the second. The first is the more potent here.

Compared with `C[C@H](NC(=O)c1ccc2c(Oc3ccc(C(F)(F)F)cc3)cccc2c1)C1CN(C)C1` [Compound 127, (S)—N-(1-(1-methylazetidin-3-yl)ethyl)-5-(4-(trifluoromethyl)phenoxy)-2-naphthamide], `CCN1CC([C@H](C)NC(=O)c2ccc3c(Oc4ccc(C(F)(F)F)cc4)cccc3c2)C1` [Compound 130, (S)—N-(1-(1-ethylazetidin-3-yl)ethyl)-5-(4-(trifluoromethyl)phenoxy)-2-naphthamide] is lower in IC50: 1 to 3 µM for the first, 0.1 to 1 µM for the second. The second is the more potent here.

Compared with `C[C@H](NC(=O)c1ccc2c(Oc3ccc(C(F)(F)F)cc3)cccc2c1)C1CN(CCF)C1` [Compound 129, (S)—N-(1-(1-(2-fluoroethyl)azetidin-3-yl)ethyl)-5-(4-(trifluoromethyl)phenoxy)-2-naphthamide], `CCN1CC([C@@H](C)NC(=O)c2ccc3c(Oc4ccc(C(F)(F)F)cc4)cccc3c2)C1` [Compound 131, (R)—N-(1-(1-ethylazetidin-3-yl)ethyl)-5-(4-(trifluoromethyl)phenoxy)-2-naphthamide] is lower in IC50: 1 to 3 µM for the first, 0.1 to 1 µM for the second. The second is the more potent here.

Compared with `CC(C)N1CC([C@H](C)NC(=O)c2ccc3c(Oc4ccc(C(F)(F)F)cc4)cccc3c2)C1` [Compound 132, (S)—N-(1-(1-isopropylazetidin-3-yl)ethyl)-5-(4-(trifluoromethyl)phenoxy)-2-naphthamide], `CC(C)N1CC([C@@H](C)NC(=O)c2ccc3c(Oc4ccc(C(F)(F)F)cc4)cccc3c2)C1` [Compound 133, (R)—N-(1-(1-isopropylazetidin-3-yl)ethyl)-5-(4-(trifluoromethyl)phenoxy)-2-naphthamide] is higher in IC50: 0.1 to 1 µM for the first, 1 to 3 µM for the second. The first is the more potent here.

First: C[C@H](NC(=O)c1ccc2c(Oc3ccc(C(F)(F)F)cc3)cccc2c1)C1CN(C2CC2)C1 [Compound 136, (S)—N-(1-(1-cyclopropylazetidin-3-yl)ethyl)-5-(4-(trifluoromethyl)phenoxy)-2-naphthamide]
Second: C[C@@H](NC(=O)c1ccc2c(Oc3ccc(C(F)(F)F)cc3)cccc2c1)C1CN(C2CC2)C1 [Compound 137, (R)—N-(1-(1-cyclopropylazetidin-3-yl)ethyl)-5-(4-(trifluoromethyl)phenoxy)-2-naphthamide]
The IC50 of the first is higher: 1 to 3 µM for the first, under 0.1 µM for the second. The second is the more potent here.
